Where two headings read alike, the source gives them in different places.
What was measured:
PD model rats = assay: Stepping test (adjusting steps) in PD model rats; format: in vivo, rat; conditions: 6-OH-Busp 3 mg/kg, sc added to L-DOPA 10 mg/kg
Experimental: The stepping test (Schallert et al., 1992) was performed as described by Kirik et al., 2001 with little modifications. Briefly, the rat was held by the experimenter fixing its hindlimbs with one hand and the forelimb not to be monitored with the other, while the unrestrained forepaw was touching the table. The number of adjusting steps was counted, while the rat was moved sideways along the table surface (90 cm in 5 s), in the forehand and backhand direction, for both forelimbs, and the average of the steps in the two directions is considered.
30 male PD model rats were used for adjusting steps test with the following groups: • 1. Vehicle 1+Vehicle 2 (n=7) • 2. Vehicle 1+L-DOPA (10 mg/kg, sc) (n=7) • 3. 6-OH-Busp (3 mg/kg, sc)+Vehicle 2 (n=8) • 4. 6-OH-Busp (3 mg/kg, sc)+L-DOPA (10 mg/kg, sc)
The PD rats were handled for 3 consecutive days. Vehicle 1 or 6-OH-Busp will s.c. dosed 61 min before adjusting steps test. Vehicle 2 or L-DOPA/Benserazide dosed 60 min before adjusting steps test. On testing day, the rats were held by both hind limbs and the untested forepaw. The test forepaw was placed on a flat surface and dragged in the forehand direction for 90 cm distance over 5 s. The number of adjusting steps was counted for both paws in the backhand and forehand directions of movement. […] Data were analyzed and graphed by Graph Pad Prism 6.

[1] = biological target: T1, human recombinant dopamine D2 receptor (Homo sapiens, UniProt P14416); conditions: read-out: D2 affinity Ki ± SEM; cited from earlier work
[2] = biological target: T2, human recombinant dopamine D3 receptor (Homo sapiens, UniProt P35462); conditions: read-out: D3 affinity Ki ± SEM; cited from earlier work
[3] = biological target: T3, human recombinant dopamine D4 receptor (Homo sapiens, UniProt P21917); conditions: read-out: D4 affinity Ki ± SEM; cited from earlier work
T3 sequence (P21917 1-419): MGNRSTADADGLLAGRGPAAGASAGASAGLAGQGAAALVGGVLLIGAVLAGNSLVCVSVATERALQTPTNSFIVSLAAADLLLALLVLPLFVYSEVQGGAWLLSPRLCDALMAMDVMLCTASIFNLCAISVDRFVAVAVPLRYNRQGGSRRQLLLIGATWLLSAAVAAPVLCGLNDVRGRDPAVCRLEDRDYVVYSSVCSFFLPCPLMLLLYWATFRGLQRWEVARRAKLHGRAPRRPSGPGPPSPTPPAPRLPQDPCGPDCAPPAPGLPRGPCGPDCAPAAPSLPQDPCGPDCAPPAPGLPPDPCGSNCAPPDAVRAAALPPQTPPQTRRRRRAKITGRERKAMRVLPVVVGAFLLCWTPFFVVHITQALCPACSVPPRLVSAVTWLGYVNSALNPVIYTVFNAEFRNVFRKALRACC

[4] = biological target: T1, human recombinant dopamine D2 receptor; conditions: saturating concentrations of dopamine; read-out: D2 efficacy IC50 ± SEM; cited from earlier work
[5] = biological target: T2, human recombinant dopamine D3 receptor; conditions: saturating concentrations of dopamine; read-out: D3 efficacy IC50 ± SEM; cited from earlier work
[6] = biological target: T3, human recombinant dopamine D4 receptor; conditions: saturating concentrations of dopamine; read-out: D4 efficacy IC50 ± SEM; cited from earlier work
[7] = human volunteers, cited from earlier work
[8] = cited from earlier work
[9] = oral administration of buspirone, analyte = label (6-OH-Busp: total, both enantiomers)
[10] = oral administration of racemic 6-OH-Busp, exposure of 6-OH-Busp

T1 sequence (P14416 whole entry): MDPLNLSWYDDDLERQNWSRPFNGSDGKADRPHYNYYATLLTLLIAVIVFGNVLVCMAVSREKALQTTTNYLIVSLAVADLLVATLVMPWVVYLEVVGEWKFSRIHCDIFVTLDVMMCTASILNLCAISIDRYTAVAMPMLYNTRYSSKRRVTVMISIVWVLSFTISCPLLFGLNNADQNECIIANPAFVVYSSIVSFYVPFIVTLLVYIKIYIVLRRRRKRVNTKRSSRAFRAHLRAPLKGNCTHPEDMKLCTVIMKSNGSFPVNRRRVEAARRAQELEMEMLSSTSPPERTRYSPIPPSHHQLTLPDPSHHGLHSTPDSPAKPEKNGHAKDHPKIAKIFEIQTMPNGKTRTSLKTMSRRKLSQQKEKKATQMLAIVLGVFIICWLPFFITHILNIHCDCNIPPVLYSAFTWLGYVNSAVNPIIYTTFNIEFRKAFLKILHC
T2 sequence (P35462 whole entry): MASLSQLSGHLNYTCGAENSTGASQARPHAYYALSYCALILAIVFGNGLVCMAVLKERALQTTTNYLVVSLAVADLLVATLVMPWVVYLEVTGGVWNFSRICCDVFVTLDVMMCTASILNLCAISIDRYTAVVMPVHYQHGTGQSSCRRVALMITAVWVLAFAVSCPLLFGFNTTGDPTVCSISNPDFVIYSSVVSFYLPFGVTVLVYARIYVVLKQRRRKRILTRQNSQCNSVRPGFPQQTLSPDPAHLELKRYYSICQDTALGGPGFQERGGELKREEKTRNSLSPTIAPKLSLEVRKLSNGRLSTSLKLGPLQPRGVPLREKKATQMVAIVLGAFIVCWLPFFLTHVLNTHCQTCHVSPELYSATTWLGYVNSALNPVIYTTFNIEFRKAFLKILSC

O=C1CC2(CCCC2)C(O)C(=O)N1CCCCN1CCN(c2ncccn2)CC1 (racemic) [6-OH-Busp]
effect on adjusting steps of adding 6-OH-Busp to L-DOPA (PD model rats): no significant different effect
Ki [1]: 5390 ± 425 nM
Ki [2]: 795 ± 84 nM
Ki [3]: 40.4 ± 17.5 nM
IC50 [4]: 3100 ± 1800 nM
IC50 [5]: 4900 ± 2800 nM
IC50 [6]: 850 ± 490 nM
half-life (T½) ([7]; after administration of either parent buspirone or 6-OH-Busp): longer than that of buspirone
AUC0-INF [7, 9]: 52.93 ngxh/ml
Cmax [7, 9]: 9.12 ng/mL
AUC0-INF [7, 10]: 131.52 ngxh/ml
Cmax [7, 10]: 25.63 ng/mL
exposure (area under the concentration-time profile) of metabolite relative to parent compound ([8]; oral dosing of buspirone in rats): 12 fold
Bioavailability ([8]; rats): 19%
plasma half-life ([8]; rats): 1.2 ± 0.2 h

From patent US11478476B2 (CONTERA PHARMA APS, priority 2014, dated 2022)
